Experimental findings from publication PMC10374545, “A small molecule inhibitor of PTP1B and PTPN2 enhances T cell anti-tumor immunity” (Nature Communications, 2023) are described below.

Where only a bound is given, the exact number is not on record here.

Assay [1] addresses T1, CD45 (Homo sapiens, UniProt P08575).
T1 construct: CD45, residues 620-1236; made in house; host or cells: E. coli BL21(DE3)
Nature of the assay: PTP selectivity, DiFMUP assay. Format: biochemical. Particulars: DiFMUP at Km. The method, then:
(§1) E. coli BL21(DE3) (Novagen) was used as an expression host and the induction of protein expression was carried out in LB media with 1 mM IPTG at 18 °C overnight. Cell pellets were stored at −80 °C for subsequent protein purification.
(§2) Protein purification of PTPs for enzymatic assays was conducted at 4 °C. Frozen cell pellets were lysed by sonication in 40 ml cold lysis buffer (50 mM Tris-HCl, pH 8.0, 150 mM NaCl, 5 mM imidazole, and 1 mM PMSF) per litre cell pellet. Cell lysates were clarified by centrifugation using a Beckman JA-18 rotor for 15 min at 5308 x g. The supernatant was incubated with HisPur Ni-NTA resin (Thermo Scientific) for 2 h and then packed onto a column and washed with 50 resin volume of buffer A (50 mM Tris-HCl, pH 8.0, 500 mM NaCl, 5 mM imidazole). The His-tagged proteins were eluted with Buffer B (50 mM Tris-HCl, pH=8.0, 500 mM NaCl, 300 mM imidazole,). Pooled His-protein-containing fractions were concentrated, loaded onto a HiLoad 26/600 Superdex 75 column (GE Healthcare Biosciences) and eluted with storage buffer (50 mM Tris-HCl, pH 8.0, 150 mM NaCl, 1 mM DTT, 10% glycerol). […] The protein was aliquoted and stored at −80 °C.
(§3) The PTP kinetic assay was modified from previous reported protocols[73],[74]. PTP activity was assayed using 6,8-Difluoro-4-Methylumbelliferyl Phosphate (DiFMUP, Invitrogen, cat# D6567,) as a substrate in 3,3-Dimethylglutaric acid (DMG) buffer (50 mM DMG, pH 7.0, 1 mM EDTA, 18 mM NaCl, 0.01% Triton X-100) at 25 °C. To determine the IC50 values, the assays were performed in 96-well plates (Corning Costar 3915). […] The final reaction volume is 200 µl. The reaction was allowed to proceed for 10 min and then quenched by the addition of 40 µl of a 160 µM solution of bpV(Phen) (Sigma-Aldrich, cat# SML0889). The fluorescence signal was measured using a CLARIOstar Plus Microplate Spectrophotometer (BMG Labtech) using excitation and emission wavelengths of 340 nm and 450 nm, respectively. Data were fitted using Prism GraphPad 9.2.0.
(§4) To determine the mode of inhibition, the reactions were initiated by the addition of enzyme (final concentration for PTP1B and PTPN2 was 0.05 nM) to the reaction mixtures (0.2 ml) containing various concentrations of DiFMUP with different concentrations of the inhibitor. The reaction was allowed to proceed for 10 min and then quenched by the addition of 40 µl of a 160 µM solution of bpV(Phen) (Sigma-Aldrich, cat# SML0889). The fluorescence signal was measured using a CLARIOstar Plus Microplate Spectrophotometer (BMG Labtech) using excitation and emission wavelength of 340 nm and 450 nm, respectively. Data were fitted using Prism GraphPad 9.2.0. For selectivity studies, the inhibition assay for other PTPs were performed under the same conditions as used for PTP1B and PTPN2 except with different DiFMUP concentration corresponding to the Km of the PTP studied.

Assay [2] addresses T2, CDC14A (Homo sapiens, UniProt Q9UNH5).
T2 construct: CDC14A, residues 1-413; made in house; host or cells: E. coli BL21(DE3)
Nature of the assay: PTP selectivity, DiFMUP assay. Format: biochemical. Particulars: DiFMUP at Km. The protocol: as §1, §2, §3, §4

Assay [3] has as its target T3, FAP-1 (Homo sapiens, UniProt Q12923).
T3 construct: FAP1, residues 2124-2485; made in house; host or cells: E. coli BL21(DE3)
Nature of the assay: PTP selectivity, DiFMUP assay. The class given is biochemical. The note with it: DiFMUP at Km. The protocol:
as §1, §2, §3, §4

Assay [4] addresses T4, HePTP (Homo sapiens, UniProt P35236).
T4 construct: HePTP, residues 22-360; made in house; host or cells: E. coli BL21(DE3)
Nature of the assay: PTP selectivity, DiFMUP assay. The class given is biochemical. The note with it: DiFMUP at Km. The method, then:
as §1, §2, §3, §4

The target in assay [5] is T5, LYP (Homo sapiens, UniProt Q9Y2R2).
T5 construct: LYP/PTPN22, residues 1-294; made in house; host or cells: E. coli BL21(DE3)
Nature of the assay: PTP selectivity, DiFMUP assay. Format: biochemical. Particulars: DiFMUP at Km. The method, then:
as §1, §2, §3, §4

The target in assay [6] is T6, PTPα (Homo sapiens, UniProt P18433).
T6 construct: PTPα, residues 173-793; made in house; host or cells: E. coli BL21(DE3)
Nature of the assay: PTP selectivity, DiFMUP assay. Format: biochemical. Particulars: DiFMUP at Km. The method, then:
as §1, §2, §3, §4

Assay [7] addresses T7, PTPε (Homo sapiens, UniProt P23469).
T7 construct: PTPε, residues 107-697; made in house; host or cells: E. coli BL21(DE3)
Nature of the assay: PTP selectivity, DiFMUP assay. Format: biochemical. Particulars: DiFMUP at Km. The protocol: as §1, §2, §3, §4

Assay [8] deals with T8, SHP-1 (Homo sapiens, UniProt P29350).
T8 construct: SHP-1, residues 245-543; made in house; host or cells: E. coli BL21(DE3)
Nature of the assay: PTP selectivity, DiFMUP assay. Format: biochemical. The note with it: DiFMUP at Km. The protocol:
as §1, §2, §3, §4

Assay [9] has as its target T9, STEP (Homo sapiens, UniProt P54829).
T9 construct: STEP, residues 258-539; made in house; host or cells: E. coli BL21(DE3)
Nature of the assay: PTP selectivity, DiFMUP assay. The class given is biochemical. Particulars: DiFMUP at Km. The method, then: as §1, §2, §3, §4

Assay [10] relates to p-STAT-1 and CD3 in AT3 tumors. Nature of the assay: Immunohistochemistry for p-STAT-1 (Y701) and CD3 in AT3 tumors. Particulars: 10 mg/kg i.v. Format: in vivo, mouse. The protocol:
For the immunohistochemistry analysis of mammary tumor samples, samples were dissected and fixed in 10% formalin. After fixation, the tissues were embedded in paraffin and sectioned onto microscopic glass slides at 4 μm thickness per section. After deparaffinization and rehydration, the slides were subjected to antigen retrieval in Tris/EDTA buffer (pH 8.0) at 120 °C for 10 min and then cooled down to room temperature. The slides were blocked with 5% (v/v) normal goat serum (NGS) containing 0.1% (v/v) TritonX-100 in PBS for 1 h at room temperature and then incubated with primary antibody p-STAT-1 (Tyr701) (1:500; Cell Signaling Technology), or CD3ε (1:1000; Dako) at room temperature for 1 h. Slides were then washed with PBS containing 0.05% (w/v) Tween-20 and visualized using a rabbit IgG VECTORSTAIN ABC Elite and DAB (3,3′‐diaminobenzidine) Peroxidase Substrate Kit (Vector Laboratories, UK) and counterstained with haematoxylin. Slides were imaged on an Olympus CX43 microscope (Olympus, Tokyo, Japan).

T1 sequence (P08575 620-1236): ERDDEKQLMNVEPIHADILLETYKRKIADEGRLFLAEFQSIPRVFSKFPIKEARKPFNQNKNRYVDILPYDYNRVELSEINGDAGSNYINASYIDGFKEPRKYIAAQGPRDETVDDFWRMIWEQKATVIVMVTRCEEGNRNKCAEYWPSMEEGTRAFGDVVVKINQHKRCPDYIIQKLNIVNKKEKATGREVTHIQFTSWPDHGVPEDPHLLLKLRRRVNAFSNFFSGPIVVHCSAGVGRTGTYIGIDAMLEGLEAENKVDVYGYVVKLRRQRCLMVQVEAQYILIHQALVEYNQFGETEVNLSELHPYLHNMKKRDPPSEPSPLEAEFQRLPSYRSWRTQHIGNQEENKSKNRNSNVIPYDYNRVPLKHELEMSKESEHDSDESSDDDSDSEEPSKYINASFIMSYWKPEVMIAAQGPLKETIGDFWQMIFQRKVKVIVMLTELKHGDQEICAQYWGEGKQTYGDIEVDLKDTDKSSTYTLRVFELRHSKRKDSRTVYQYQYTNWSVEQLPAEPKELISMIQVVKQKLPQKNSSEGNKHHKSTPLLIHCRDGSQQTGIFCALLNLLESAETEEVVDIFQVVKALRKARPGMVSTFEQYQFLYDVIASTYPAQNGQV
T3 sequence (Q12923 2124-2485): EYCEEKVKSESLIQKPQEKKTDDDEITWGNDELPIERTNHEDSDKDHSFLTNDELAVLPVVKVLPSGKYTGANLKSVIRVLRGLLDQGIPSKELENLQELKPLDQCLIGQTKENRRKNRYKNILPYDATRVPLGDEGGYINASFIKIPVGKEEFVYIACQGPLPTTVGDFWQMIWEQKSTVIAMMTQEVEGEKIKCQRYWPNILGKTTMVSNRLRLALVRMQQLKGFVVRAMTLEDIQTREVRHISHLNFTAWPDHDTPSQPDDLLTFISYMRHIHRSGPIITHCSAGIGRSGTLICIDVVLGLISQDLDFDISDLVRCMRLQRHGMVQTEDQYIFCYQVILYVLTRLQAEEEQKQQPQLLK
T2 sequence (Q9UNH5 1-413): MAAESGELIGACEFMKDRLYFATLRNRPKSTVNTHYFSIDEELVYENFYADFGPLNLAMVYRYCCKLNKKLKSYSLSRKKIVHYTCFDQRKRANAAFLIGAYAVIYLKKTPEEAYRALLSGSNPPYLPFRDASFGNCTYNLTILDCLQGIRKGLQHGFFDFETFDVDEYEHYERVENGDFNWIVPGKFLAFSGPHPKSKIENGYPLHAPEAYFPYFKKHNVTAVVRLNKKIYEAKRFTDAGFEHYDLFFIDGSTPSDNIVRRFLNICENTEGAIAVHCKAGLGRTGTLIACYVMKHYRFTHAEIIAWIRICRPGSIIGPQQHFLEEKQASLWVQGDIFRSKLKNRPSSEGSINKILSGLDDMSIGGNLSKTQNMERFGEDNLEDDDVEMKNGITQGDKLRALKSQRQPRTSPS
T7 sequence (P23469 107-697): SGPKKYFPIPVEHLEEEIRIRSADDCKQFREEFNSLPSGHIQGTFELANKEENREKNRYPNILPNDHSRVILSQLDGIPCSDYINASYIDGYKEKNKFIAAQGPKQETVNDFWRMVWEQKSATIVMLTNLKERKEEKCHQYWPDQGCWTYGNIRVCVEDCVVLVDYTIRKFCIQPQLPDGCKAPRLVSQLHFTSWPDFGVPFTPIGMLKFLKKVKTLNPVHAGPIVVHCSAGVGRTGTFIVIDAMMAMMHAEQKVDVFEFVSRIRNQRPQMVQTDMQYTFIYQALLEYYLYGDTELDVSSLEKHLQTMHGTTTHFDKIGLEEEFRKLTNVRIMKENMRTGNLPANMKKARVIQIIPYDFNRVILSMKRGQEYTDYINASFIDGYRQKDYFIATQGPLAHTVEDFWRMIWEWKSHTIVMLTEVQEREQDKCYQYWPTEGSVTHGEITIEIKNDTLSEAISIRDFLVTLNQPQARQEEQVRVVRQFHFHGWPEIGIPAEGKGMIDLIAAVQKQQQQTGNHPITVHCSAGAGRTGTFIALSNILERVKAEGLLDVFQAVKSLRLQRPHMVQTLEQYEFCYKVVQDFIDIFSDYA
T9 sequence (P54829 282-563): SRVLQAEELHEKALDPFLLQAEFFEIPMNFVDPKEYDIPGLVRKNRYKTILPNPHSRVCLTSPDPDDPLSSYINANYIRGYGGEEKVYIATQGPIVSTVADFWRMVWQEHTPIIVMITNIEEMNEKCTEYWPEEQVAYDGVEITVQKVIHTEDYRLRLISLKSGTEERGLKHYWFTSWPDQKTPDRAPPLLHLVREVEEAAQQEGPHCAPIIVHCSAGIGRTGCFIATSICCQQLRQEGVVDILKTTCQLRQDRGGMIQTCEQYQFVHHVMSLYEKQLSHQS
T5 sequence (Q9Y2R2 1-294): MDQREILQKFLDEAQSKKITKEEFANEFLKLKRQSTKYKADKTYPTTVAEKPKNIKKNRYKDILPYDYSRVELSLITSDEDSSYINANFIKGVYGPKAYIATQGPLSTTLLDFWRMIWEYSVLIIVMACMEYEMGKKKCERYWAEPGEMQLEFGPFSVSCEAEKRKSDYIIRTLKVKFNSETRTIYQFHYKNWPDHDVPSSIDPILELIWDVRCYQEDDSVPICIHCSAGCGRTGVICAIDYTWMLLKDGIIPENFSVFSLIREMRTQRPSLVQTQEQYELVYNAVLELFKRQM
T8 sequence (P29350 245-543): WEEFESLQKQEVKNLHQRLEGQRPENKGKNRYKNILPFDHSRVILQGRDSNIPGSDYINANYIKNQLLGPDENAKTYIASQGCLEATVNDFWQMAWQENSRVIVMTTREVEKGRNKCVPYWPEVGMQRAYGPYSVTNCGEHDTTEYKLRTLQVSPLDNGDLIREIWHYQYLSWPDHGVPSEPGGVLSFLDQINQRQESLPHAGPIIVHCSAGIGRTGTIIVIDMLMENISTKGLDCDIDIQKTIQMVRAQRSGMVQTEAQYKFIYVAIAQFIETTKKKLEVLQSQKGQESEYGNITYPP
T4 sequence (P35236 22-360): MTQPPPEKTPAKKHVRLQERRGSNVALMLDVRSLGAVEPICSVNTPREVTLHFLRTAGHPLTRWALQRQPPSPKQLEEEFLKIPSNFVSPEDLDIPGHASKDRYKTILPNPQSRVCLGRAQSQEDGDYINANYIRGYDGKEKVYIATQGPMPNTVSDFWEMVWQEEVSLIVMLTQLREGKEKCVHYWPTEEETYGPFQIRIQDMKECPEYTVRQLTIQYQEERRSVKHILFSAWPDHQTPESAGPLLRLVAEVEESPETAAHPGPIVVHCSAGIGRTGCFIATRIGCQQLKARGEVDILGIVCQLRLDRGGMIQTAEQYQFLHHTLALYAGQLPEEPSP

A word on the IC50: it is the concentration needed to halve the response being measured. Low values mean greater potency in that assay, high ones weaker potency in that assay. For the molecule `CC(C)(O)CCOc1ccc2cc(O)c(N3CC(=O)NS3(=O)=O)c(F)c2c1` [Compound 182, 5-(1-Fluoro-3-hydroxy-7-(3-hydroxy-3-methylbutoxy)naphthalen-2-yl)−1,2,5-thiadiazolidin-3-one 1,1-dioxide], the IC50 in assay [1] is more than 20 µM; in assay [2], 6.3 ± 0.8 µM; in assay [3], more than 20 µM; in [4], more than 20 µM; in [5], more than 20 µM; in [6] it was more than 20 µM. In addition, the IC50 in assay [7] was 0.8 ± 0.1 µM; in [8], 9.1 ± 0.4 µM; in [9], more than 20 µM. The “tumor p-STAT-1 and CD3+ T cell infiltrates in AT3 tumors of Lck-Cre;Ptpn2fl/fl mice” value in assay [10] is “enhanced promotion”.
